Tested on: DMS-114 complex spheroids with HUVEC/MSC, growth % test/control
Assay: Anticancer human tumor DMS-114 cell line growth inhibition [AhR];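 also: spheroids exposed to agents for 7 days before readout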;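 as to viability, T/C: 100% = DMSO vehicle control wells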
Conditions: for IC50: curve of first compound; for viability, T/C: stronger effect = lower value
In short: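 Spheroids combined tumor cells with HUVEC endothelial cells and human MSCs as stroma. AhR antagonists were paired with standard or investigational drugs, each dosed in half-log steps down from near clinical Cmax, or from 10 microM where Cmax was unknown.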

[1] = second compound 0.1 µM, first compound 0.0316 µM
[2] = second compound 0.1 µM, first compound 0.1 µM
[3] = second compound 0.1 µM, first compound 0.316 µM
[4] = second compound 0.1 µM, first compound 1 µM
[5] = second compound 0.316 µM, first compound 0.0316 µM
[6] = second compound 0.316 µM, first compound 0.1 µM
[7] = second compound 0.316 µM, first compound 0.316 µM
[8] = second compound 0.316 µM, first compound 1 µM
[9] = second compound 1 µM, first compound 0.0316 µM
[10] = second compound 1 µM, first compound 0.1 µM
[11] = second compound 1 µM, first compound 0.316 µM
[12] = second compound 1 µM, first compound 1 µM
[13] = second compound 3.16 µM, first compound 0.0316 µM
[14] = second compound 3.16 µM, first compound 0.1 µM
[15] = second compound 3.16 µM, first compound 0.316 µM
[16] = second compound 3.16 µM, first compound 1 µM
[17] = second compound 10 µM, first compound 0.0316 µM
[18] = second compound 10 µM, first compound 0.1 µM
[19] = second compound 10 µM, first compound 0.316 µM
[20] = second compound 10 µM, first compound 1 µM
[21] = second compound 0.1 µM, first compound 3.16 µM
[22] = second compound 0.1 µM, first compound 10 µM
[23] = second compound 0.316 µM, first compound 3.16 µM
[24] = second compound 0.316 µM, first compound 10 µM
[25] = second compound 1 µM, first compound 3.16 µM
[26] = second compound 1 µM, first compound 10 µM
[27] = second compound 3.16 µM, first compound 3.16 µM
[28] = second compound 3.16 µM, first compound 10 µM
[29] = second compound 10 µM, first compound 3.16 µM
[30] = second compound 10 µM, first compound 10 µM

CC(C)CC(NC(=O)C(Cc1ccccc1)NC(=O)c1cnccn1)B(O)O (stereo not given) + Cc1ccccc1N=Nc1ccc(NC(=O)c2ccnn2C)c(C)c1
IC50 (second compound 0.1 µM): 5.5 nM | IC50 (second compound 0.316 µM): 6.01 nM | IC50 (second compound 1 µM): 5.87 nM | IC50 (second compound 3.16 µM): 6.14 nM | IC50 (second compound 10 µM): 5.59 nM | viability, T/C (second compound 0.1 µM, first compound 0.000949 µM): 90.3% | viability, T/C (second compound 0.1 µM, first compound 0.003 µM): 93.9% | viability, T/C (second compound 0.1 µM, first compound 0.00949 µM): 12.1% | viability, T/C (second compound 0.1 µM, first compound 0.03 µM): 0.2% | viability, T/C (second compound 0.1 µM, first compound 0.0949 µM): 0.1% | viability, T/C (second compound 0.1 µM, first compound 0.3 µM): 0.22% | viability, T/C (second compound 0.316 µM, first compound 0.000949 µM): 101% | viability, T/C (second compound 0.316 µM, first compound 0.003 µM): 99.9% | viability, T/C (second compound 0.316 µM, first compound 0.00949 µM): 17.2% | viability, T/C (second compound 0.316 µM, first compound 0.03 µM): 0.18% | viability, T/C (second compound 0.316 µM, first compound 0.0949 µM): 0.05% | viability, T/C (second compound 0.316 µM, first compound 0.3 µM): 0.48% | viability, T/C (second compound 1 µM, first compound 0.000949 µM): 94.7% | viability, T/C (second compound 1 µM, first compound 0.003 µM): 94.6% | viability, T/C (second compound 1 µM, first compound 0.00949 µM): 18.1% | viability, T/C (second compound 1 µM, first compound 0.03 µM): 0.41% | viability, T/C (second compound 1 µM, first compound 0.0949 µM): 0.28% | viability, T/C (second compound 1 µM, first compound 0.3 µM): 0.18% | viability, T/C (second compound 3.16 µM, first compound 0.000949 µM): 89.9% | viability, T/C (second compound 3.16 µM, first compound 0.003 µM): 97.8% | viability, T/C (second compound 3.16 µM, first compound 0.00949 µM): 23.4% | viability, T/C (second compound 3.16 µM, first compound 0.03 µM): 0.28% | viability, T/C (second compound 3.16 µM, first compound 0.0949 µM): 1.08% | viability, T/C (second compound 3.16 µM, first compound 0.3 µM): 0.24% | viability, T/C (second compound 10 µM, first compound 0.000949 µM): 94.3% | viability, T/C (second compound 10 µM, first compound 0.003 µM): 88.7% | viability, T/C (second compound 10 µM, first compound 0.00949 µM): 17.1% | viability, T/C (second compound 10 µM, first compound 0.03 µM): 0.65% | viability, T/C (second compound 10 µM, first compound 0.0949 µM): 0.6% | viability, T/C (second compound 10 µM, first compound 0.3 µM): 0.32%

CC1COCCN1c1cc(-c2ccnn2C)c2ccnc(-c3ccn[nH]3)c2n1 (stereo not given) + CC(CO)NC(=O)c1cc(-c2ccc(Cl)cc2)nn(-c2cnn(C)c2)c1=O
IC50 (second compound 0.1 µM): 50.8 nM | IC50 (second compound 0.316 µM): 65 nM | IC50 (second compound 1 µM): 34.2 nM | IC50 (second compound 3.16 µM): 33.6 nM | IC50 (second compound 10 µM): 21.1 nM | viability, T/C (second compound 0.1 µM, first compound 0.00316 µM): 90.1% | viability, T/C (second compound 0.1 µM, first compound 0.01 µM): 82% | viability, T/C [1]: 59.1% | viability, T/C [2]: 34.4% | viability, T/C [3]: 27.9% | viability, T/C [4]: 15.8% | viability, T/C (second compound 0.316 µM, first compound 0.00316 µM): 93% | viability, T/C (second compound 0.316 µM, first compound 0.01 µM): 89.1% | viability, T/C [5]: 60.1% | viability, T/C [6]: 42.7% | viability, T/C [7]: 26.2% | viability, T/C [8]: 15.2% | viability, T/C (second compound 1 µM, first compound 0.00316 µM): 85.3% | viability, T/C (second compound 1 µM, first compound 0.01 µM): 94.4% | viability, T/C [9]: 51.8% | viability, T/C [10]: 34.4% | viability, T/C [11]: 27.6% | viability, T/C [12]: 14.6% | viability, T/C (second compound 3.16 µM, first compound 0.00316 µM): 84.8% | viability, T/C (second compound 3.16 µM, first compound 0.01 µM): 73.7% | viability, T/C [13]: 49.4% | viability, T/C [14]: 31.6% | viability, T/C [15]: 22.3% | viability, T/C [16]: 13.9% | viability, T/C (second compound 10 µM, first compound 0.00316 µM): 86.8% | viability, T/C (second compound 10 µM, first compound 0.01 µM): 63.2% | viability, T/C [17]: 42.2% | viability, T/C [18]: 29.6% | viability, T/C [19]: 24.1% | viability, T/C [20]: 14.8%

COc1cc(C2c3cc4c(cc3C(OC3OC5COC(C)OC5C(O)C3O)C3COC(=O)C23)OCO4)cc(OC)c1O (stereo not given) + Cc1cncc(-c2nc(NCCc3c[nH]c4ccccc34)c3ncn(C(C)C)c3n2)c1
IC50 (second compound 0.1 µM): 448 nM | IC50 (second compound 0.316 µM): 351 nM | IC50 (second compound 1 µM): 390 nM | IC50 (second compound 3.16 µM): 298 nM | IC50 (second compound 10 µM): < 31.6 nM | viability, T/C [1]: 102% | viability, T/C [2]: 97.8% | viability, T/C [3]: 58.1% | viability, T/C [4]: 27% | viability, T/C [21]: 16.5% | viability, T/C [22]: 8.1% | viability, T/C [5]: 96.4% | viability, T/C [6]: 96.3% | viability, T/C [7]: 50.4% | viability, T/C [8]: 24.9% | viability, T/C [23]: 16.3% | viability, T/C [24]: 9.46% | viability, T/C [9]: 92.7% | viability, T/C [10]: 94.6% | viability, T/C [11]: 54.6% | viability, T/C [12]: 23.5% | viability, T/C [25]: 17.6% | viability, T/C [26]: 9.48% | viability, T/C [13]: 87.1% | viability, T/C [14]: 93.3% | viability, T/C [15]: 47.5% | viability, T/C [16]: 21.9% | viability, T/C [27]: 15.7% | viability, T/C [28]: 8.67% | viability, T/C [17]: 42.3% | viability, T/C [18]: 41.6% | viability, T/C [19]: 21.7% | viability, T/C [20]: 10.2% | viability, T/C [29]: 8.09% | viability, T/C [30]: 5.18%

NS(=O)(=O)OCC1CC(n2ccc3c(NC4CCc5ccccc54)ncnc32)CC1O (stereo not given) + Cc1cncc(-c2nc(NCCc3c[nH]c4ccccc34)c3ncn(C(C)C)c3n2)c1
IC50 (second compound 0.1 µM): 50.3 nM | IC50 (second compound 0.316 µM): 45.8 nM | IC50 (second compound 1 µM): 42 nM | IC50 (second compound 3.16 µM): 40.5 nM | IC50 (second compound 10 µM): < 31.6 nM | viability, T/C [1]: 59.4% | viability, T/C [2]: 36% | viability, T/C [3]: 17.1% | viability, T/C [4]: 7.31% | viability, T/C [21]: 5.19% | viability, T/C [22]: 4.45% | viability, T/C [5]: 56.9% | viability, T/C [6]: 35.4% | viability, T/C [7]: 16.1% | viability, T/C [8]: 6.55% | viability, T/C [23]: 5.26% | viability, T/C [24]: 3.74% | viability, T/C [9]: 55% | viability, T/C [10]: 34.7% | viability, T/C [11]: 17.6% | viability, T/C [12]: 6.95% | viability, T/C [25]: 4.06% | viability, T/C [26]: 4.6% | viability, T/C [13]: 54.9% | viability, T/C [14]: 32.2% | viability, T/C [15]: 15.8% | viability, T/C [16]: 4.55% | viability, T/C [27]: 4.39% | viability, T/C [28]: 2.86% | viability, T/C [17]: 42.2% | viability, T/C [18]: 24.6% | viability, T/C [19]: 12.2% | viability, T/C [20]: 3.49% | viability, T/C [29]: 2.11% | viability, T/C [30]: 1.61%

Reference: PubChem BioAssay AID1919008 (Molecular Pharmacology Branch, DTP, NCI, 2023)
